# According to PMC2879362, “Design of Group IIA Secreted/Synovial Phospholipase A2 Inhibitors: An Oxadiazolone Derivative Suppresses Chondrocyte Prostaglandin E2 Secretion” (PLoS ONE, 2010):
# Experiments:
# COX-2 = assay: Western blot of COX-2 protein level in IL-1β-treated chondrocytes; format: cell-based, rabbit; conditions: C8 0.31-1.24 µM in DMEM, IL-1β 20 h
# Experimental: (§1) As expected, COX-1 protein was detectable but COX-2 and iNOS proteins were undetectable in untreated control conditions (Fig. 6A). […] Consequently, the protein ratio of COX-1 to COX-2 was not modified by C8 (Fig. 6B). […] Cell lysates were centrifuged for 15 min at 14000 rpm at 4°C and supernatants were collected. Protein concentrations were determined by the Bradford method by use of the Protein Assay dye reagent (Bio-Rad). Protein extracts (20 µg) were size-separated by SDS-PAGE in a 10% (w/v) polyacrylamide gel and electroblotted to a nitrocellulose membrane. Equal protein loading and transfer was confirmed by staining the membrane with Ponceau Red [0.2% (w/v) in H2O:acetic acid 99∶1]. The membrane was sequentially incubated with antibodies against COX-1 (1∶200, Santa Cruz Biotechnology), COX-2 (1∶500, Santa Cruz Biotechnology), iNOS (1∶400, BD Biosciences) or α-tubulin (1∶100, Santa Cruz Biotechnology) and then with peroxidase-conjugated donkey anti-goat IgG (1∶20000) or donkey anti-rabbit IgG (1∶200, both Santa Cruz Biotechnology). Immunocomplexes were detected by an enhanced chemiluminescence kit (Amersham Bioscience). The membrane was stripped by incubation in 0.2 M NaOH between successive immunodetections. Semi-quantitative scanning densitometry involved use of the ImageJ program (NIH, USA).
# [1] = system: IL-1β-stimulated NO secretion in articular chondrocytes; assay: IL-1β-stimulated NO (nitrite) secretion in articular chondrocytes (Griess); format: cell-based, rabbit
# Experimental: We tested the effect of C8 on the IL-1β-stimulated secretion of NO in chondrocytes. NO is a mediator of immune and inflammatory responses. In vitro, IL-1β induces the expression of inducible NO synthase (iNOS) by chondrocytes, and consequently an increase in NO production. NO secretion, evaluated by nitrite concentration in the cell culture medium, represents a reliable IL-1β-dependent and PLA2-independent inflammatory marker in our cell model. Chondrocytes were treated for 20 h with IL-1β alone or 1 h after the addition of C8.
# Articular chondrocytes were isolated from 5-week-old Fauve de Bourgogne female rabbits (CPA, Orleans, France) and cultured at the first passage in conditions avoiding cell dedifferentiation as previously described. Cells were cultured at 37°C in 12-well plates in Ham's F-12 medium containing 10% FCS, 20 IU/mL penicillin, and 20 µg/mL streptomycin (all from Invitrogen) until nearly confluent. Then medium was replaced with DMEM (Invitrogen) containing 20 IU/mL penicillin, and 20 µg/mL streptomycin and, if necessary, 0.1% fatty acid free BSA (Sigma) or 2% FCS. At this time the C8 compound dissolved in DMSO (Sigma) was added to the medium (the amount of DMSO was kept at 1‰ (v/v) in all the wells). 1 h after the addition of C8, IL-1β (PeproTech) was added to the medium. Consequently, chondrocytes were incubated for 20 h with IL-1β and for 21 h with C8.
# 20 h after the addition of IL-1β to the chondrocytes, culture media were collected, and aliquots were stored at −80°C until PGE2 and nitrite quantification. PGE2 concentration in culture media was determined by use of an enzyme immunoassay (EIA) kit (PGE2 EIA Kit-monoclonal; Cayman Chemical). Nitrite concentration was determined by a spectrophotometry method based on the Griess reaction. Briefly, 200 µL of culture medium or sodium nitrite (NaNO2, Merck) standard dilutions were mixed with 100 µL Griess reagent [0.5% (w/v) sulphanilic acid (Merck), 0.05% (w/v) N(1-naphtyl)ethylenediamine (Merck), 30% (v/v) acetic acid, 1.5 N HCl] and incubated for 10 min at 50°C. The absorbance was measured at 540 nm.
# [2] = biological target: T1, human GIIAPLA2 (hGIIAPLA2) (Homo sapiens, UniProt P14555); assay: In vitro fluorimetric PLA2 assay (β-py-C10-PG substrate); format: biochemical; conditions: 2 µM β-py-C10-PG, 1 ng/mL hGIIAPLA2
# T1 construct: hGIIAPLA2 was prepared as previously described [33]; made in house
# T1 sequence (P14555 21-144): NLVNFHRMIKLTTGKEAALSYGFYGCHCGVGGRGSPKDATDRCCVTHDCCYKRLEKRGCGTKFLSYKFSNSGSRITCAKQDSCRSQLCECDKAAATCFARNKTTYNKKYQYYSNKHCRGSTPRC
# Experimental: (§2) The compounds C1-C8 were submitted to fluorimetric assay to determine their inhibitory potencies and selectivity towards human GIIAPLA2 (hGIIAPLA2) versus porcine group IB PLA2 (pGIBPLA2) (Table 2). GIBPLA2 is an enzyme of the same family as GIIAPLA2 (sPLA2) but is mainly involved in digestion of dietary phospholipids and is secreted by the pancreas. Lipophilicity parameters, log P, of these products are calculated by use of Rekker's fragmental data (Table 2). The molecules C1-C8 are specific inhibitors of hGIIAPLA2 because none inhibited pGIBPLA2 at the highest concentration tested (100 µM). Such selectivity implies that C1-C8 should not interfere with the digestion process.
# (§3) Fatty-acid free BSA and pancreatic PLA2 were from Sigma. hGIIAPLA2 was prepared as previously described. The fluorescent substrate for PLA2 assay, 1-hexadecanoyl-2-(10-pyrenedecanoyl)-sn-glycero-3-phosphoglycerol, ammonium salt (β-py-C10-PG) was from Molecular Probes (Eugene). PLA2 activity was evaluated as previously described with β-py-C10-PG used as a substrate (2 µM final concentration). In a total volume of 1 mL, the standard reaction medium contained 50 mM Tris-HCl (pH 7.5), 500 mM NaCl, 1 mM EGTA, 2 µM β-py-C10-PG, 0.1% fatty-acid free BSA and 6 ng/mL pancreatic PLA2 or 1 ng/mL hGIIAPLA2. The fluorescence (λex = 342 nm and λem = 398 nm) of the enzymatic reaction medium was recorded for 3 min with use of a spectrofluorimeter LS 50 (Perkin-Elmer) equipped with a Xenon lamp. The reaction was initiated by the addition of CaCl2 (10 mM, final concentration). The increase in fluorescence was continuously recorded for 1 min, and PLA2 activity was calculated as previously described. When used, the inhibitor was added to the reaction medium after introduction of BSA. The activity is expressed in micromoles of fluorescent β-py-C10-PG hydrolyzed per min. The standard error of the mean of three independent experiments was less than 10%, which allows for the determination of the IC50 values (concentration of inhibitors producing 50% inhibition) of each compound.
# [3] = biological target: T2, porcine group IB PLA2 (pGIBPLA2) (Sus scrofa, UniProt P00592); assay: as above; format: biochemical; conditions: 2 µM β-py-C10-PG, 6 ng/mL pancreatic PLA2
# T2 construct: purchased Sigma
# T2 sequence (P00592 23-146): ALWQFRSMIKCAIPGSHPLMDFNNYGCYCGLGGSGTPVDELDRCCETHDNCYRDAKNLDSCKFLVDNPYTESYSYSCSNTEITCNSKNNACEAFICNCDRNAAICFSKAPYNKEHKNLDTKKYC
# Experimental: as §2, §3
# COX-1 = assay: Western blot of COX-1 protein level in IL-1β-treated chondrocytes; format: cell-based, rabbit; conditions: C8 0.31-1.24 µM in DMEM, IL-1β 20 h
# Experimental: as §1
compound,measurement,setting,value
O=c1[nH]c(Cc2ccc(OCCCCCOc3cc4ccccc4c4ccccc34)cc2)no1 [C8],effect on COX-2 protein level,COX-2,did not alter
same,inhibition of IL-1β-stimulated nitrite secretion,"[1]; DMEM + 0.1% BSA, IL-1β 20 h",did not significantly inhibit
same,decrease of IL-1β-induced nitrite production,"[1]; DMEM + 2% FCS, C8 1.24 µM",17%
same,decrease of IL-1β-induced nitrite production,"[1]; DMEM + 2% FCS, C8 2.48 µM",19%
same,decrease of IL-1β-induced nitrite production,"[1]; DMEM + 2% FCS, C8 4.96 µM",21%
same,inhibition of IL-1β-stimulated nitrite secretion,"[1]; DMEM + 2% FCS, C8 at 0.31, 0.62 and 0.94 µM",did not inhibit
same,inhibition of IL-1β-stimulated nitrite secretion,"[1]; DMEM medium alone, IL-1β 20 h",did not significantly inhibit
same,IC50,[2],620 ± 150 nM
same,IC50,[3],> 100000 nM
same,effect on COX-1 protein level,COX-1,did not alter
